Legend:
[1] = molecular target: Protein mono-ADP-ribosyltransferase PARP14 (Homo sapiens, UniProt Q460N5); assay: Inhibition of human ARTD8 by fluorescence analysis
[2] = molecular target: T1, Poly [ADP-ribose] polymerase tankyrase-2 (Homo sapiens, UniProt Q9H2K2); assay: Inhibition of human TNKS2 by fluorescence analysis
T1 sequence (Q9H2K2 whole entry): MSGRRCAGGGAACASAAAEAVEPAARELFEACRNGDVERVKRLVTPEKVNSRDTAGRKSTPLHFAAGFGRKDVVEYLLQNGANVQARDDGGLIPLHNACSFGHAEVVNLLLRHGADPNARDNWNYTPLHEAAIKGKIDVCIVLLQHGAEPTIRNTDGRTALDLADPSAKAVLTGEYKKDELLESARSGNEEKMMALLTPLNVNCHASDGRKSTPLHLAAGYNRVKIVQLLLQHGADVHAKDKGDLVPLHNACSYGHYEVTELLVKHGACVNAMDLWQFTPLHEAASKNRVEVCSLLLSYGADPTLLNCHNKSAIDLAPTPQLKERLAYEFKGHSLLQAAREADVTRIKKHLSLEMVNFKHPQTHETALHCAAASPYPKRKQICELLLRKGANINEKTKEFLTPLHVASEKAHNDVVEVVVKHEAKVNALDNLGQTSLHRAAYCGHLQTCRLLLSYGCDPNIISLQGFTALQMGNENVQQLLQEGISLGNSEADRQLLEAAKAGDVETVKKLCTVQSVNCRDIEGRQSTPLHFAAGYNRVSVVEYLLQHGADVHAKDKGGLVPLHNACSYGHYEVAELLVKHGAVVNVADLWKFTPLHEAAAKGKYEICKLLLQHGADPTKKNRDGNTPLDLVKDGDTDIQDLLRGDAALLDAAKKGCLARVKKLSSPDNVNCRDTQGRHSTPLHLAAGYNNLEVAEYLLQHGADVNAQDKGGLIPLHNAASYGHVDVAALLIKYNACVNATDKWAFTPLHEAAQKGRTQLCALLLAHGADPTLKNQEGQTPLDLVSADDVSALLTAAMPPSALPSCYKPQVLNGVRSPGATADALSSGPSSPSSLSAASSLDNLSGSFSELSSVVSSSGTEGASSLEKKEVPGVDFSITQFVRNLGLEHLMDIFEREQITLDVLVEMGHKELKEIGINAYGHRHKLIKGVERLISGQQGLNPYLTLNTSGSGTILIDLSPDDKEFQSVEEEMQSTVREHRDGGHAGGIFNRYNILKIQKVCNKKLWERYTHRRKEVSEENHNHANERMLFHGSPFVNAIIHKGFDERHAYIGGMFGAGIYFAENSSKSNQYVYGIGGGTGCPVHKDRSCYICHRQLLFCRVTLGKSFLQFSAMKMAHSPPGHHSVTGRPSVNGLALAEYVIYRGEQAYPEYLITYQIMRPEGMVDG

[3] = molecular target: T2, Protein mono-ADP-ribosyltransferase PARP15 (Homo sapiens, UniProt Q460N3); assay: Inhibition of human ARTD7 by fluorescence analysis
T2 sequence (Q460N3 whole entry): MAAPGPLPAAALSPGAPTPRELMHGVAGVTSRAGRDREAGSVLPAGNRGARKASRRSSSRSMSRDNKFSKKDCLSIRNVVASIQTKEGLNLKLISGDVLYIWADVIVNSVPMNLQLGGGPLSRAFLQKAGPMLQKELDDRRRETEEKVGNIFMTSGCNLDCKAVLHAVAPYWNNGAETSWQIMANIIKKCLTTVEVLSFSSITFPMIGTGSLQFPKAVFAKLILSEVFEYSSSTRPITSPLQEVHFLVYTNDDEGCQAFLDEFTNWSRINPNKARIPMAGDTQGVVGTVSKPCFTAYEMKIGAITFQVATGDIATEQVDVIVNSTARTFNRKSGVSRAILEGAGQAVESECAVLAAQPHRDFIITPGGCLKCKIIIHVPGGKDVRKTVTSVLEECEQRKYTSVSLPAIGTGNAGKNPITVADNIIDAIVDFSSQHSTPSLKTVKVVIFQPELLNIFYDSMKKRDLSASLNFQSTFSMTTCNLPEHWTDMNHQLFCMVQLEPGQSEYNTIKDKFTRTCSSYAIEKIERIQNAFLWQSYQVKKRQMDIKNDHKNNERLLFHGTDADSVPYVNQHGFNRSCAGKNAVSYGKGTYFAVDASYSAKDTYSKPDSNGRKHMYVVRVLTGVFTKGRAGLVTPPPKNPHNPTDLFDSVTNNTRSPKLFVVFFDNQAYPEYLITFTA

Protein mono-ADP-ribosyltransferase PARP14, sequence (Q460N5 whole entry): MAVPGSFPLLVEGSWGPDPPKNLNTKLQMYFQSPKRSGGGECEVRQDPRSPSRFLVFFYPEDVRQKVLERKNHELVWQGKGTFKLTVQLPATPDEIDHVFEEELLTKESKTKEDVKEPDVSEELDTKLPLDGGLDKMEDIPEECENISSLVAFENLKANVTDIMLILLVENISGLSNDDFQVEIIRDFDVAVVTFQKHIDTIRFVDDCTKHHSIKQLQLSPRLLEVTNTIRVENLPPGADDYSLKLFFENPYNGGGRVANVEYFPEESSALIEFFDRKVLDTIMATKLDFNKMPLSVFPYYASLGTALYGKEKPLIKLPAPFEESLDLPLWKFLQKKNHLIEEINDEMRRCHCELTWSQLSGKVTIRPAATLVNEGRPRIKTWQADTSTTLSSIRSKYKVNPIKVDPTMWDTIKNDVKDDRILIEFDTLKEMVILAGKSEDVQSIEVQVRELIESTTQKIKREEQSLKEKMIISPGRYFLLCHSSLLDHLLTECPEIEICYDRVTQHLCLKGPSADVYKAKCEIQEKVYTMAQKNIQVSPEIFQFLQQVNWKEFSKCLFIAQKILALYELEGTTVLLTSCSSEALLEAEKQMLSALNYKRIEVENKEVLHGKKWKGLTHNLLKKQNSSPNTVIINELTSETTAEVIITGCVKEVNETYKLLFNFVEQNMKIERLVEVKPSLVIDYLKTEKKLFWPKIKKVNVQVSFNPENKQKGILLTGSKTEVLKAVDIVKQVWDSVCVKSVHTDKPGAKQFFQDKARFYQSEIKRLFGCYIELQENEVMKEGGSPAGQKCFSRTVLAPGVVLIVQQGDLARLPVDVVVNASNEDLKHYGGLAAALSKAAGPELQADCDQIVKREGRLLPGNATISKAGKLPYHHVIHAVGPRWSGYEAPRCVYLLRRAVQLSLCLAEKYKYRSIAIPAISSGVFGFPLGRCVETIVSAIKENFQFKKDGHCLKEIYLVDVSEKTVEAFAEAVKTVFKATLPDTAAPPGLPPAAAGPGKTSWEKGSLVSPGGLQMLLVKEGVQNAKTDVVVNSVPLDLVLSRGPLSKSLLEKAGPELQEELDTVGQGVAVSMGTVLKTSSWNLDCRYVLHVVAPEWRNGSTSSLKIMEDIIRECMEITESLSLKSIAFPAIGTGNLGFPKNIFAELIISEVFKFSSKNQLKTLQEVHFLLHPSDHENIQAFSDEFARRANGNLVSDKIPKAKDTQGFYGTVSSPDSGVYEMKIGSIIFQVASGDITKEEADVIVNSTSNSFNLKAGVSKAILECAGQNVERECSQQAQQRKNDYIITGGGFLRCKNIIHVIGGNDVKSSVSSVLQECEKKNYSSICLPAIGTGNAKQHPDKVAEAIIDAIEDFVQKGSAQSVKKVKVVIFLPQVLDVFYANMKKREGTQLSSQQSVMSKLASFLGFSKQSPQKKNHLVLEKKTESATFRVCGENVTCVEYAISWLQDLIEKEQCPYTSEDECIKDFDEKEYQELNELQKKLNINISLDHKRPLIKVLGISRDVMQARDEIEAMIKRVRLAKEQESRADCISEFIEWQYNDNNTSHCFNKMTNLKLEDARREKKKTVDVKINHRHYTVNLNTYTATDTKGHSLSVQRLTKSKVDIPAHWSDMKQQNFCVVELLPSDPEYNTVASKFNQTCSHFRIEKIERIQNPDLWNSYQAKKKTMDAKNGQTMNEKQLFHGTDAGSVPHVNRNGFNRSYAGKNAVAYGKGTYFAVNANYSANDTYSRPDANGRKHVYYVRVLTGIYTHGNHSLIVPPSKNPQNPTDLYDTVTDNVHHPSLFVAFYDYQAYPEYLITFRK

With `COc1ccc(C2(CNC(=O)c3ccc(NC(=O)c4ccco4)cc3Cl)CCOCC2)cc1` the IC50 [1] was over 10000 nM, the IC50 ([2]; read-out: IC50) was 2150 nM and the IC50 ([2]; read-out: pIC50 (converted)) was 2140 nM. It also gave an IC50 [3] of over 10000 nM.

Reference: ChEMBL document CHEMBL3751785, “Development and structural analysis of adenosine site binding tankyrase inhibitors” (Bioorg Med Chem Lett, 2016)
